From patent US20260248127A1, “IMPROVED PESTICIDAL COMPOSITIONS AND PEST CONTROL METHODS” (priority 2022, published 2026)
≈ marks a conversion by molar mass, not a printed value. Where “and” joins values, the source holds several entries; their conditions need not be identical. Identical values can stand only once. Like-named read-outs stand apart in the source and are kept apart here.

Columns and labels:
[1] = test system: Aedes aegypti LVP (SP-susceptible) strain L3 larvae; test: Larval mortality-time assay, LVP strain; assay type: in vivo; conditions: table row says LC50 LVP dose, text LC90 dose
Source text: Results represent n=3 biological replicates. Lethal time (LT50) of post topical exposure to a Lethal Concentration (LC90) dose is shown in comparison to SP and the technical grade synthetic pyrethroid, Deltamethrin.

[2] = test system: Aedes aegypti LVP (SP-susceptible) strain L3 larvae; conditions: data from a previous study, cited from earlier work
[3] = test system: Aedes aegypti PRS (SP-resistant) strain L3 larvae; conditions: data from a previous study, cited from earlier work
[4] = test system: Musca domestica CAR21 (insecticide susceptible) strain; test: Topical synergist 24-hour mortality assay, CAR21 house flies; assay type: in vivo; conditions: for % Dead / Alive / Dead: CAR21, topical doses; for % Dead: 24-hour mortality; for maximum sublethal dose: for both strains (CAR21, KS17); for Alive / Dead: number of flies, pooled of 4 replicates, 24-hour
[5] = test system: Musca domestica KS17 (insecticide resistant) strain; test: Topical synergist 24-hour mortality assay, KS17 house flies; assay type: in vivo; conditions: topical doses; for % Dead: 24-hour mortality; for Alive / Dead: number of flies, pooled of 4 replicates, 24-hour
[6] = test system: Aedes aegypti LVP (SP-susceptible) strain L3 larvae; test: Larval dose-mortality (dose response) assay, LVP strain; assay type: in vivo; conditions: for LC50: Aedes aegypti, read-out: Lethal Concentration (LC50)
Source text: (§1) Results represent n=3 biological replicates.

[7] = test system: Aedes aegypti PRS (SP-resistant) strain 3-5 day old adults; test: Adult dose-mortality assay, PRS strain; assay type: in vivo; conditions: for LC50: Aedes aegypti, PRS adults
[8] = test system: Aedes aegypti LVP (SP-susceptible) strain L3 larvae; test: Qcide combinations larval dose-mortality assay, LVP strain; assay type: in vivo
Protocol: (§2) Results represent n=3 biological replicates. […] The Synergistic Ratio (SR) and P-value are shown. Mosquito mortality is shown for A and B: LVP at 24 and 48 hours. […] Mosquito mortality is shown for A and B: PRS at 24 and 48 hours.
(§3) Results represent n=3 biological replicates. […] The Synergistic Ratio (SR) and P-value are shown.

[9] = test system: Aedes aegypti LVP (SP-susceptible) strain 3-5 day old adults; test: Adult dose-mortality assay, LVP strain; assay type: in vivo; conditions: for LC50: Aedes aegypti, read-out: Lethal Dose (LC50)
[10] = test system: Aedes aegypti PRS (SP-resistant) strain L3 larvae; test: Larval dose-mortality (dose response) assay, PRS strain; assay type: in vivo; conditions: for LC50: Aedes aegypti, PRS L3 larvae, read-out: Lethal Concentration (LC50)
Source text: as §1

[11] = test system: Aedes aegypti PRS (SP-resistant) strain L3 larvae; test: Qcide combinations larval dose-mortality assay, PRS strain; assay type: in vivo
Protocol: as §2, §3

[12] = 24 h, Permethrin alone (Table 4)
[13] = 24 h, Permethrin alone (Table 5)
[14] = 48 h, Permethrin alone (Table 4)
[15] = 48 h, Permethrin alone (Table 5)

CC1(C)[C@H](C(=O)O[C@H](C#N)c2cccc(Oc3ccccc3)c2)[C@@H]1C=C(Br)Br [Deltamethrin]
Lethal Time (LT50) [1]: 5.6 h and 5.5 h

CC(C)C(=O)C1C(=O)C(C)(C)C(=O)C(C)(C)C1=O [Flavesone, flavesone]
Lethal Concentration (LC50) ([2]; 24 hours, listed as flavesone): 41 µg/mL
Lethal Concentration (LC50) ([2]; 24 hours): 40.9 µg/mL
Lethal Concentration (LC50) ([2]; 48 hours): 40.5 µg/mL
Lethal Concentration (LC50) ([2]; 72 hours): 39.7 µg/mL
Lethal Concentration (LC50) ([3]; 24 hours, listed as flavesone): 39 µg/mL
Lethal Concentration (LC50) ([3]; 24 hours): 38.7 µg/mL
Lethal Concentration (LC50) ([3]; 48 hours): 37.1 µg/mL
Lethal Concentration (LC50) ([3]; 72 hours): 37.1 µg/mL
% Dead [4]: 0.0%
maximum sublethal dose ([4]; topical): 0.3 % v/v
Alive [4]: 80
Dead [4]: 0

CCCCOCCOCCOCc1cc2c(cc1CCC)OCO2 [PBO, piperonyl butoxide]
% Dead [5]: 3.9%
Alive [5]: 74
Dead [5]: 3
% Dead [4]: 0.0%
maximum sublethal dose ([4]; topical): 10 μg/fly
Alive [4]: 80
Dead [4]: 0

CC1(C)C(C=C(Cl)Cl)C1C(=O)OCc1cccc(Oc2ccccc2)c1 (stereo not drawn) [Permethrin, permethrin]
Lethal Concentration (LC50) ([6]; 24 hours post exposure): 0.0259 µg/mL
LC50 ([6]; 24 h, 24 hours post exposure): 0.026 µg/mL (≈ 0.0664 µM)
LC50 ([6]; 48 h, 48 hours post exposure): 0.0252 µg/mL (≈ 0.0644 µM)
LC50 ([6]; 72 h, 72 hours post exposure): 0.0214 µg/mL (≈ 0.0547 µM)
LC50 ([7]; 24 hours post exposure, read-out: Lethal Dose (LC50)): 130 µg/mL (≈ 332 µM)
LC50 ([7]; 24 hours, read-out: LC50): 130 µg/mL (≈ 332 µM)
LC50 ([7]; 48 hours post exposure, read-out: Lethal Dose (LC50)): 120 µg/mL (≈ 307 µM)
resistance of PRS strain adults as compared to LVP ([7]; adults, under assay conditions): approximately 240 fold
LC50 [8, 12]: 0.0205 µg/mL
LC50 [8, 13]: 0.0237 µg/mL
LC50 [8, 14]: 0.0181 µg/mL
LC50 [8, 15]: 0.0217 µg/mL
Lethal Dose (LC50) ([9]; 24 hours post exposure): 0.5429 µg/mL
LC50 ([9]; 24 h, 24 hours post exposure): 0.543 µg/mL (≈ 1.39 µM)
LC50 ([9]; 48 h, 48 hours post exposure): 0.505 µg/mL (≈ 1.29 µM)
% Dead [5]: 3.8%
Alive [5]: 77
Dead [5]: 3
Lethal Time (LT50) [1]: 5.5 h and 5.6 h
LC50 ([10]; 24 hours post exposure): 0.7 µg/mL (≈ 1.79 µM)
LC50 ([10]; 48 hours post exposure): 0.6 µg/mL (≈ 1.53 µM)
LC50 ([10]; 72 hours post exposure): 0.6 µg/mL (≈ 1.53 µM)
resistance of PRS strain larvae as compared to LVP strain ([10]; L3 larvae, under assay conditions): approx. 25 fold
LC50 [11, 12]: 2.1 µg/mL
LC50 [11, 13]: 1.21 µg/mL
LC50 [11, 14]: 1.3 µg/mL
LC50 [11, 15]: 0.87 µg/mL
% Dead [4]: 7.5%
LD50 dose ([4]; CAR21 strain, topical): 12 ng/fly
Alive [4]: 74
Dead [4]: 6
